US7847065B2, “CXADRL1 polypeptides relating to human cancers” (Oncotherapy Science, Inc., priority 2002, dated 2010)
Ends that are not written are not given here. Peptide text beside a SMILES is read from it.

Tested on: SNU475
Assay: Cytotoxicity of CTLs against tumor cell line SNU475
Format: cell-based, human
Conditions: SNU475 expresses CXADRL1, GCUD1 and HLA-A*0201
Method: (§3) Target cells were labeled with 100 μCi of Na2^51CrO4 (Perkin Elmer Life Sciences) for 1 h at 37° C. in a CO2 incubator. When peptide-pulsed targets were used, target cells were incubated with the addition of 20 μg/ml of the peptide for 16 h at 37° C. before the labeling with Na2^51CrO4. Target cells were rinsed and mixed with effectors at a final volume of 0.2 ml in round-bottom microtiter plates. The plates were centrifuged (4 minutes at 800×g) to increase cell-to-cell contact and placed in a CO2 incubator at 37° C. After 4 h of incubation, 0.1 ml of the supernatant was collected from each well and the radioactivity was determined with a gamma counter. In case of evaluating cytotoxicity against target cells that endogenously express RNF43, CXADRL1, or GCUD1, the cytolytic activity was tested in the presence of a 30-fold excess of unlabeled K562 cells to reduce any non-specific lysis due to NK-like effectors. […] The MHC restriction was examined by blocking assay, measuring the inhibition of the cytotoxicity with anti-HLA-class I (W6/32) antibody and anti-HLA-class II antibody, or anti-CD4 antibody and anti-CD8 antibody (DAKO).
(§4) The percentage of specific cytotoxicity was determined by calculating the percentage of specific ^51Cr-release by the following formula: {(cpm of the test sample release−cpm of the spontaneous release)/(cpm of the maximum release−cpm of the spontaneous release)}×100. Spontaneous release was determined by incubating the target cells alone in the absence of effectors, and the maximum release was obtained by incubating the targets with 1N HCl. All determinants were done in duplicate, and the standard errors of the means were consistently below 10% of the value of the mean.

Compound	Cytotoxic activity of peptide-induced CTLs against SNU475
ALSSGLYQV [CXADRL1-9V, ALSSGLYQV]	killed
KMDAEHPEV [GCUD1-9V, KMDAEHPEV]	killed

Tested on: MKN-28 cells
Assay: MTT assay after transfection of S-oligonucleotides, MKN-28
Format: cell-based, human
Conditions: six days after transfection
Method: (§1) Cells plated onto 10-cm dishes (2×10^5 cells/dish) were transfected either with plasmid, or synthetic S-oligonucleotides of CXADRL1, GCUD1, or RNF43 using LIPOFECTIN Reagent (GIBCO BRL). Then the cells were cultured with the addition of an appropriate concentration of geneticin for six to twelve days. The cells were then fixed with 100% methanol and stained by Giemsa solution. Sequences of the S-oligonucleotides were as follows:
(§2) Cells plated at a density of 5×10^5 cells/100 mm dish were transfected in triplicate with sense or antisense S-oligonucleotides designated to suppress the expression of CXADRL1, GCUD1, or RNF43. […] Subsequently, the cells were lysed by the addition of 1 ml of 0.01 N HCl/10% SDS and the absorbance of lysates was measured with ELISA plate reader at a test wavelength of 570 nm (reference, 630 nm). The cell viability was represented by the absorbance compared to that of control cells.

Compound	Viable cells (MTT assay) compared with control S-oligonucleotides
5′-CAGCCATCCTGAAAAG-3′ (phosphorothioate, further chemistry not given here) [GCUD1-AS5, antisense S-oligonucleotide]	markedly fewer
5′-CGGCTTACCTCAACCT-3′ (phosphorothioate, further chemistry not given here) [GCUD1-AS8, antisense S-oligonucleotide]	markedly fewer

Tested on: HT29
Assay: not given
Conditions: not given

Compound	Cytotoxic activity of CTL clone on HT29
ALWPWLLMA [RNF43-11, ALWPWLLMA]	no significant cytotoxic activity
ALWPWLLMAT [RNF43-11, ALWPWLLMAT]	no significant cytotoxic activity

Tested on: MKN-1 gastric cancer cells
Assay: MTT assay after transfection of S-oligonucleotides, MKN-1
Format: cell-based, human
Conditions: MKN-1 cells, six days after transfection
Method: as §1, §2

Compound	Viable cells (MTT assay) compared with control S-oligonucleotides
5′-CTACTCACCGTGCAGA-3′ (phosphorothioate, further chemistry not given here) [CXADRL1-AS4, antisense S-oligonucleotide]	markedly fewer
5′-TGCAACACCTACAGAA-3′ (phosphorothioate, further chemistry not given here) [CXADRL1-AS5, antisense S-oligonucleotide]	markedly fewer

Tested on: T2 cells (HLA-A*0201)
Assay: not given
Conditions: not given

Compound	Cytotoxicity(%) ×2 Pep(+)	Cytotoxicity(%) ×2 Pep(−)	Cytotoxicity(%) ×20 Pep(+)	Cytotoxicity(%) ×20 Pep(−)	Cytotoxic activity of peptide-induced CTL line/clone on peptide-pulsed target
CC(C)C[C@H](NC(=O)[C@@H](N)CS)C(=O)N[C@@H](Cc1c[nH]cn1)C(=O)N[C@@H](CCC(=O)O)C(=O)N[C@@H](Cc1ccccc1)C(=O)N[C@@H](Cc1c[nH]cn1)C(=O)N[C@@H](CCCNC(=N)N)C(=O)N[C@@H](CC(N)=O)C(=O)N[C@@H](CS)C(=O)N[C@H](C(=O)O)C(C)C [RNF43-290, CLHEFHRNCV] (H-CLHEFHRNCV-OH)	2.7%	3.7%	9.6%	9.7%	–
ALWPWLLMAT [RNF43-11, ALWPWLLMAT]	–	–	–	–	higher cytotoxic activity
GLTWPVVLI [RNF43-156, GLTWPVVLI]	−0.5%	−0.3%	−0.4%	0.7%	–
KLMEFVYKN [RNF43-171, KLMEFVYKN]	1.1%	−0.5%	2.6%	0.0%	–
KLMQSHPLYL [RNF43-81, KLMQSHPLYL]	6.3%	8.3%	18.0%	27.6%	–
KLNLTLEGV [RNF43-60, KLNLTLEGV]	−1.6%	0.0%	−2.1%	0.2%	–
LLGPSRSAV [RNF43-358, LLGPSRSAV]	0.0%	−0.8%	−0.4%	−0.7%	–
LMQSHPLYL [RNF43-82, LMQSHPLYL]	0.0%	−0.4%	1.7%	1.2%	–
WLHQHRTCPL [RNF43-302, WLHQHRTCPL]	1.5%	2.2%	7.4%	6.1%	–
WLLMATLQA [RNF43-15, WLLMATLQA]	−0.4%	−0.9%	−0.2%	0.0%	–
YLLGPSRSAV [RNF43-357, YLLGPSRSAV]	3.7%	3.0%	18.2%	15.4%	–

Tested on: DLD-1
Assay: not given
Conditions: not given

Compound	Cytotoxic activity of CTL clone on DLD-1
ALWPWLLMA [RNF43-11, ALWPWLLMA]	high cytotoxic activity
ALWPWLLMAT [RNF43-11, ALWPWLLMAT]	high cytotoxic activity

Tested on: TISI cells (HLA-A24/24)
Assay: not given
Conditions: not given

Compound	Cytotoxicity of CTL lines (9mer) ×2 Pep(+)	Cytotoxicity of CTL lines (9mer) ×2 Pep(−)	Cytotoxicity of CTL lines (9mer) ×20 Pep(+)	Cytotoxicity of CTL lines (9mer) ×20 Pep(−)	Cytotoxicity of CTL lines (10mer) ×2 Pep(+)	Cytotoxicity of CTL lines (10mer) ×2 Pep(−)	Cytotoxicity of CTL lines (10mer) ×20 Pep(+)	Cytotoxicity of CTL lines (10mer) ×20 Pep(−)	Cytotoxic activity of peptide-induced CTL line/clone on peptide-pulsed target
GFGRTGLVL [RNF43-24, GFGRTGLVL]	1%	2%	8%	9%	–	–	–	–	–
HYTPSVAYPW [RNF43-683, HYTPSVAYPW]	–	–	–	–	0%	−1%	0%	0%	–
KLMQSHPLYL [RNF43-81, KLMQSHPLYL]	–	–	–	–	2%	−3%	10%	5%	modest cytotoxic activity
KMDPTGKLNL [RNF43-54, KMDPTGKLNL]	–	–	–	–	0%	−1%	5%	2%	modest cytotoxic activity
LFNLQKSSL [RNF43-639, LFNLQKSSL]	7%	5%	42%	33%	–	–	–	–	higher cytotoxic activities
RAPGEQQRL [RNF43-397, RAPGEQQRL]	15%	15%	41%	32%	–	–	–	–	–
RAPRPCLSL [RNF43-114, RAPRPCLSL]	6%	9%	23%	26%	–	–	–	–	–
RPPRPGPFL [RNF43-368, RPPRPGPFL]	0%	0%	1%	0%	–	–	–	–	–
RYQASCRQA [RNF43-247, RYQASCRQA]	28%	16%	71%	82%	–	–	–	–	–
SYCTERSGYL [RNF43-449, SYCTERSGYL]	–	–	–	–	0%	0%	1%	1%	–
SYQEPGRRL [RNF43-331, SYQEPGRRL]	0%	0%	2%	1%	–	–	–	–	–
TFCSSLSSDF [RNF43-496, TFCSSLSSDF]	–	–	–	–	0%	0%	8%	9%	–

Tested on: T2 cells (HLA-A*0201)
Assay: 51Cr-release cytotoxicity assay of peptide-induced CTLs on T2 cells
Conditions: T2 not pulsed with any peptide
Method: as §3, §4

Compound	Cytotoxic activity of peptide-induced CTL line/clone on non-pulsed target
FLTTASGVSV [GCUD1-272, FLTTASGVSV]	without showing any cytotoxic activity

Same assay, conditions: T2 pulsed with the peptide

Compound	Cytotoxic activity of peptide-induced CTL line/clone on peptide-pulsed target
FLTTASGVSV [GCUD1-272, FLTTASGVSV]	very potent cytotoxic activity
